The values below come from patent publication US20230286958A1, “PLASMA KALLIKREIN INHIBITORS” (Merck Sharp & Dohme LLC, priority 2020, published 2023).

Test [1] addresses Human plasma kallikrein (Homo sapiens (Human), UniProt P03952). The experiment in a line: Kallikrein Assay (fluorogenic substrate Acetyl-K-P-R-AFC). It counts as biochemical. As to conditions: Plasma Kallikrein (PKal). The gist of the method: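 Ki is derived from IC50 with the Cheng-Prusoff equation, and IC50 from the inflection point of a four-parameter logistic curve. The rate of AFC release is read with 0.5 nM purified enzyme and […] substrate at room temperature or 37 °C.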

Test [2] has as its target human Factor XIa (Homo sapiens (Human), UniProt P03951). Kind of test: Factor XIa Assay (fluorogenic substrate GPR-AFC). It counts as biochemical. As to conditions: Factor XIa (FXIa).

Bounds are passed on as bounds.

One may read the IC50 as the concentration that inhibits the measured activity by half. A low value points to higher potency.

Sequence of Human plasma kallikrein (P03952 391-638): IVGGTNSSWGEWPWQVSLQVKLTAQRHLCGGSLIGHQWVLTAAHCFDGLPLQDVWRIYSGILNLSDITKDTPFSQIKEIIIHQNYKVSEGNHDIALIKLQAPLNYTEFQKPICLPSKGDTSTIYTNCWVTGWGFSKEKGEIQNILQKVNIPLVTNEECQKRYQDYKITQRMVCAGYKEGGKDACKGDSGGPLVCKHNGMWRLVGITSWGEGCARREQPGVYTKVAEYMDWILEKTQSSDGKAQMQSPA
Sequence of Human plasma kallikrein (P03952 20-390 partner): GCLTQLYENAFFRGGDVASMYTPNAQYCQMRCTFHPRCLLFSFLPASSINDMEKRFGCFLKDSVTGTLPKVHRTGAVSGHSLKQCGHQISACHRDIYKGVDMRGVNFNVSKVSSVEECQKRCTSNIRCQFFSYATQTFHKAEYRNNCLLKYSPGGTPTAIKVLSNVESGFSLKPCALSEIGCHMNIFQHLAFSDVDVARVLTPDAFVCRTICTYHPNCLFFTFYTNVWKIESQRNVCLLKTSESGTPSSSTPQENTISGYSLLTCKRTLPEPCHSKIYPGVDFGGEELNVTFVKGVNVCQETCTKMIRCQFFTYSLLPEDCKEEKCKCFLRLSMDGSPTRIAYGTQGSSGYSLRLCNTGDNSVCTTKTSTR
Sequence of human Factor XIa (P03951 388-625 limits assumed): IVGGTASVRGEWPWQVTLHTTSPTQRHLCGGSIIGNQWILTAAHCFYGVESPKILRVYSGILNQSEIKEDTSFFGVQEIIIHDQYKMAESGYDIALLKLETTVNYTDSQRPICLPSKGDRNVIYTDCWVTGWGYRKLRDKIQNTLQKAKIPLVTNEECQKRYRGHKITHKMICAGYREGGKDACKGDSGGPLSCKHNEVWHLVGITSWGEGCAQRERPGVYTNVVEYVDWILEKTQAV
Sequence of human Factor XIa (P03951 19-387 partner limits assumed): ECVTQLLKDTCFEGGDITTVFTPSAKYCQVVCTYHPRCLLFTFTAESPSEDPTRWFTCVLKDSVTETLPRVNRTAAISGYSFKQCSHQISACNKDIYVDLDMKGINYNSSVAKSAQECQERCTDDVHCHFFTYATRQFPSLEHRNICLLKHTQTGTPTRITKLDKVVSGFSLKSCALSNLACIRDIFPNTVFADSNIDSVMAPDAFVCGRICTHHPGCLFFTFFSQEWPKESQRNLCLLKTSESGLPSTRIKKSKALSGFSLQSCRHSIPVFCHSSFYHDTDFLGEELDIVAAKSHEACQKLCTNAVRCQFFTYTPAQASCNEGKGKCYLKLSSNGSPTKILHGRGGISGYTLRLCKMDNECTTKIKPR

`CC(c1cnc(N2C[C@H]3C[C@H]3C2=O)c(C(F)F)c1)n1cc(NC(=O)c2cncc(-c3c(C(F)F)ccc(Cl)c3F)n2)cn1` (single isomer, unassigned) [Example 77, 6-(3-Chloro-6-(difluoromethyl)-2-fluorophenyl)-N-(1-((S or R)-1-(5-(difluoromethyl)-6-((1R,5S)-2-oxo-3-azabicyclo[3.1.0]hexan-3-yl)pyridin-3-yl)ethyl)-1H-pyrazol-4-yl)pyrazine-2-carboxamide]: the IC50 in test [1] was 12.6 nM; in test [2], 7.92 µM.
With `CC(c1cnc(N2CC3CC3C2=O)nc1)n1cc(NC(=O)c2cncc(-c3c(OC(F)F)ccc(Cl)c3F)n2)cn1` (single isomer, unassigned) [Example 71, 6-(3-Chloro-6-(difluoromethoxy)-2-fluorophenyl)-N-(1-((S or R)-1-(2-((1R,5S or 1S,5R)-2-oxo-3-azabicyclo[3.1.0]hexan-3-yl)pyrimidin-5-yl)ethyl)-1H-pyrazol-4-yl)pyrazine-2-carboxamide], the values for the half-inhibitory concentration (IC50) in test [1] and in test [2] were 39 nM and 4.3 µM, respectively.
On the same counts, the results for `O=C(Nc1cnn(Cc2ccc(N3C[C@H]4C[C@H]4C3=O)nc2)c1)c1cncc(-c2c(C(F)F)ccc(Cl)c2F)n1` [Example 9, 6-(3-Chloro-6-(difluoromethyl)-2-fluorophenyl)-N-(1-((6-((1R,5S)-2-oxo-3-azabicyclo[3.1.0]hexan-3-yl)pyridin-3-yl)methyl)-1H-pyrazol-4-yl)pyrazine-2-carboxamide] are 1 nM and greater than 10 µM.
Consider `Cc1ncc(-c2c(OC(F)F)ccc(Cl)c2F)nc1C(=O)Nc1cnn(C(C)c2cnc(N3C[C@H]4C[C@H]4C3=O)c(C)n2)c1` (single isomer, unassigned) [Example 124, 6-(3-Chloro-6-(difluoromethoxy)-2-fluorophenyl)-3-methyl-N-(1-((R or S)-1-(6-methyl-5-((1R,5S)-2-oxo-3-azabicyclo[3.1.0]hexan-3-yl)pyrazin-2-yl)ethyl)-1H-pyrazol-4-yl)pyrazine-2-carboxamide], for which the values for the half-inhibitory concentration (IC50) in test [1] and in test [2] were 0.6 nM and 0.963 µM, respectively.
For `Cc1cc([C@@H](C)n2cc(NC(=O)c3cncc(-c4c(C(F)F)ccc(Cl)c4F)n3)cn2)nnc1N1C[C@H]2C[C@H]2C1=O` [Example 38, 6-(3-Chloro-6-(difluoromethyl)-2-fluorophenyl)-N-(1-((R)-1-(5-methyl-6-((1R,5S)-2-oxo-3-azabicyclo[3.1.0]hexan-3-yl)pyridazin-3-yl)ethyl)-1H-pyrazol-4-yl)pyrazine-2-carboxamide], the IC50 in test [1] amounted to 6.2 nM; in test [2], 0.742 µM.
On the same counts, the results for `Cc1nc(N2C[C@H]3C[C@H]3C2=O)ncc1C(C)n1cc(NC(=O)c2nc(-c3c(C(F)F)ccc(Cl)c3F)cnc2CO)cn1` (single isomer, unassigned) [Example 195, 6-(3-Chloro-6-(difluoromethyl)-2-fluorophenyl)-3-(hydroxymethyl)-N-(1-((R or S)-1-(4-methyl-2-((1R,5S)-2-oxo-3-azabicyclo[3.1.0]hexan-3-yl)pyrimidin-5-yl)ethyl)-1H-pyrazol-4-yl)pyrazine-2-carboxamide] are 18.2 nM and 0.765 µM.
As for `CC(c1cnc(N2C[C@H]3C[C@H]3C2=O)c(F)c1)n1cc(NC(=O)c2nc(-c3c(C(F)F)ccc(Cl)c3F)cnc2CO)cn1` (single isomer, unassigned) [Example 206, 6-(3-Chloro-6-(difluoromethyl)-2-fluorophenyl)-N-(1-((R or S)-1-(5-fluoro-6-((1R,5S)-2-oxo-3-azabicyclo[3.1.0]hexan-3-yl)pyridin-3-yl)ethyl)-1H-pyrazol-4-yl)-3-(hydroxymethyl)pyrazine-2-carboxamide], the results for the half-inhibitory concentration (IC50) in test [1] and in test [2] were 0.3 nM and 0.12 µM, respectively.
Take `CC(c1cnc(N2CCN(C)C2=O)nc1)n1cc(NC(=O)c2cncc(-c3c(C(F)F)ccc(Cl)c3F)n2)cn1` (racemic) [Example 28, (S and R)-6-(3-Chloro-6-(difluoromethyl)-2-fluorophenyl)-N-(1-(1-(2-(3-methyl-2-oxoimidazolidin-1-yl)pyrimidin-5-yl)ethyl)-1H-pyrazol-4-yl)pyrazine-2-carboxamide]: the results for the concentration for half-maximal inhibition (IC50) in test [1] and in test [2] were 47.4 nM and greater than 10 µM, respectively.
Turning to `Cc1ncc(-c2c(C(F)F)ccc(Cl)c2F)nc1C(=O)Nc1cnn(C(CO)c2cnc(N3C[C@H]4C[C@H]4C3=O)nc2)c1` (single isomer, unassigned) [Example 164, 6-(3-Chloro-6-(difluoromethyl)-2-fluorophenyl)-N-(1-((R or S)-2-hydroxy-1-(2-((1R,5S)-2-oxo-3-azabicyclo[3.1.0]hexan-3-yl)pyrimidin-5-yl)ethyl)-1H-pyrazol-4-yl)-3-methylpyrazine-2-carboxamide], the half-maximal inhibitory concentration (IC50) came out at 5.4 nM in test [1] and 4.89 µM in test [2].
For `Cc1nc(N2C[C@H]3C[C@H]3C2=O)ncc1[C@@H](C)n1cc(NC(=O)c2cncc(-c3c(C(F)F)ccc(Cl)c3F)n2)cn1` [Example 23, 6-(3-Chloro-6-(difluoromethyl)-2-fluorophenyl)-N-(1-((R)-1-(4-methyl-2-((1R,5S)-2-oxo-3-azabicyclo[3.1.0]hexan-3-yl)pyrimidin-5-yl)ethyl)-1H-pyrazol-4-yl)pyrazine-2-carboxamide], the IC50 is 48.7 nM in test [1] and 7.6 µM in test [2].
As for `Cc1nc(Cn2cc(NC(=O)c3nc(-c4c(C(F)F)ccc(Cl)c4F)cnc3C)cn2)ncc1N1C[C@H]2C[C@H]2C1=O` [Example 93, 6-(3-Chloro-6-(difluoromethyl)-2-fluorophenyl)-3-methyl-N-(1-((4-methyl-5-((1R,5S)-2-oxo-3-azabicyclo[3.1.0]hexan-3-yl)pyrimidin-2-yl)methyl)-1H-pyrazol-4-yl)pyrazine-2-carboxamide], the values for the IC50 in test [1] and in test [2] were 19.9 nM and greater than 10 µM, respectively.
Take `Cc1ccc(Cl)c(F)c1-c1cncc(C(=O)Nc2cnn(C(C)c3cnc(N4C[C@H]5C[C@H]5C4=O)nc3C)c2)n1` (single isomer, unassigned) [Example 109, 6-(3 -Chloro-2-fluoro-6-methylphenyl)-N-(1-((R or S)-1-(4-methyl-2-((1R,5S)-2-oxo-3-azabicyclo[3.1.0]hexan-3-yl)pyrimidin-5-yl)ethyl)-1H-pyrazol-4-yl)pyrazine-2-carboxamide]: the results for the IC50 in test [1] and in test [2] were 5.1 nM and 1.92 µM, respectively.
On the same counts, the results for `Cc1nc(N2C[C@H]3C[C@H]3C2=O)ncc1C(C)n1cc(NC(=O)c2nc(-c3c(C(F)F)ccc(Cl)c3F)cnc2C)cn1` (single isomer, unassigned) [Example 42] are 0.7 nM and 1.52 µM.
As to `Cc1nc(N2C[C@@H]3C[C@@H]3C2=O)ncc1[C@H](CO)n1cc(NC(=O)c2cncc(-c3c(C(F)F)ccc(Cl)c3F)n2)cn1` [Example 158, 6-(3-Chloro-6-(difluoromethyl)-2-fluorophenyl)-N-(1-((R)-2-hydroxy-1-(4-methyl-2-((1S,5R)-2-oxo-3-azabicyclo[3.1.0]hexan-3-yl)pyrimidin-5-yl)ethyl)-1H-pyrazol-4-yl)pyrazine-2-carboxamide], the IC50 in test [1] was 2720 nM; in test [2] it was greater than 10 µM.
For `Cc1ncc(-c2c(C#N)ccc(Cl)c2F)nc1C(=O)Nc1cnn(C(CO)c2cnc(N3C[C@H]4C[C@H]4C3=O)nc2)c1` (single isomer, unassigned) [Example 166, 6-(3-Chloro-6-cyano-2-fluorophenyl)-N-(1-((R or S)-2-hydroxy-1-(2-((1R,5S)-2-oxo-3-azabicyclo[3.1.0]hexan-3-yl)pyrimidin-5-yl)ethyl)-1H-pyrazol-4-yl)-3-methylpyrazine-2-carboxamide], the results for the IC50 in test [1] and in test [2] were 19.7 nM and greater than 10 µM, respectively.
For the compound `C[C@@H](c1cnc(N2C[C@H]3C[C@H]3C2=O)nc1N)n1cc(NC(=O)c2cncc(-c3c(C(F)F)ccc(Cl)c3F)n2)cn1` [Example 171, N-(1-((S)-1-(4-Amino-2-((1R,5S)-2-oxo-3-azabicyclo[3.1.0]hexan-3-yl)pyrimidin-5-yl)ethyl)-1H-pyrazol-4-yl)-6-(3-chloro-6-(difluoromethyl)-2-fluorophenyl)pyrazine-2-carboxamide], the IC50 in test [1] was 713 nM; in test [2], greater than 10 µM.
In the case of `CC(c1cnc(N2CC3CC3C2=O)nc1)n1cc(NC(=O)c2cncc(-c3c(OC(F)F)ccc(Cl)c3F)n2)cn1` (single isomer, unassigned) [Example 72, 6-(3-Chloro-6-(difluoromethoxy)-2-fluorophenyl)-N-(1-((R or S)-1-(2-((1R,5S or 1S,5R)-2-oxo-3-azabicyclo[3.1.0]hexan-3-yl)pyrimidin-5-yl)ethyl)-1H-pyrazol-4-yl)pyrazine-2-carboxamide], the IC50 in test [1] came out at 3.7 nM; in test [2] it was 2.74 µM.
Turning to `Cc1c(C(C)n2cc(NC(=O)c3cncc(-c4c(C(F)F)ccc(Cl)c4F)n3)cn2)nnc(N2C[C@H]3C[C@H]3C2=O)c1C` (single isomer, unassigned) [Example 110, 6-(3-Chloro-6-(difluoromethyl)-2-fluorophenyl)-N-(1-((S or R)-1-(4,5-dimethyl-6-((1R,5S)-2-oxo-3-azabicyclo[3.1.0]hexan-3-yl)pyridazin-3-yl)ethyl)-1H-pyrazol-4-yl)pyrazine-2-carboxamide], the IC50 in test [1] was determined as 14 nM; in test [2] it was 3.45 µM.
`COc1c(N2C[C@H]3C[C@H]3C2=O)ncc(C(C)n2cc(NC(=O)c3cncc(-c4c(C(F)F)ccc(Cl)c4F)n3)cn2)c1C` (single isomer, unassigned) [Example 155, 6-(3-Chloro-6-(difluoromethyl)-2-fluorophenyl)-N-(1-((S or R)-1-(5-methoxy-4-methyl-6-((1R,5S)-2-oxo-3-azabicyclo[3.1.0]hexan-3-yl)pyridin-3-yl)ethyl)-1H-pyrazol-4-yl)pyrazine-2-carboxamide]: the results for the IC50 in test [1] and in test [2] were 7.1 nM and 8.2 µM, respectively.
